Data published in patent US9617310B2 (priority 2013, dated 2017).

What was measured:
[1] = test system: NS3/4a protease inhibitor resistant variant R155K in genotype 1a transient HCV replicon; assay: Transient-transfected HCV replicon, genotype 1a R155K; format: cell-based; details: Hepatitis C virus, 72 h, read-out: EC50 1A R155K
[2] = test system: genotype 3a stable HCV replicon (S52) in Huh-7-derived cells; assay: Stable subgenomic HCV replicon, genotype 3a, Renilla luciferase; format: cell-based; details: Hepatitis C virus, 72 h, read-out: EC50 3A RLUC
Method: (§1) Antiviral potency (EC50) was determined in both stable subgenomic HCV replicon cell lines and transient-transfected HCV replicon cells. The term half maximal effective concentration (EC50) refers to the concentration of a drug which induces a response halfway between the baseline and maximum after the exposure time specified below.
(§2) Stable subgenomic HCV replicons for genotype 1a, 1b, 2a, 3a, and 4a were established in Huh-7-derived cells as described by Lohmann et al (Lohmann V, Korner F, Koch J, et al Replication of subgenomic hepatitis C virus RNAs in a hepatoma cell line. Science 1999; 285:119-3). Each stable cell line contains a bicistronic HCV replicon that encodes a humanized Renilla luciferase (hRLuc) reporter gene fused to a selectable neomycin-resistance gene, followed by an EMCV IRES and the NS3-NS5B coding region of HCV. […] Luciferase activity was measured as a marker for intracellular HCV replication levels.
(§3) The genotype 1a stable replicon was derived from the H77 HCV strain and contained adaptive mutations P1496L and S2204I. The genotype 1b stable replicon was derived from the Con1 HCV strain and contained adaptive mutations E1202G, T1280I, and K1846T. […] The genotype 3a stable replicon was derived from the S52 HCV strain and contained adaptive mutations P1121 L, A1198T and S2210I (equivalent to S2204I in genotype 1). The genotype 4a stable replicon was derived from the ED43 HCV strain and contained adaptive mutations Q1691R and S2204I. All replicon cell lines were propagated in Huh-7-derived cells and maintained in Dulbecco's modified Eagle's Medium (DMEM) supplemented with 10% fetal bovine serum (FBS) and 0.5 mg/ml G418.
(§4) To perform EC50 assays, cells from each HCV replicon were dispensed into 384-well plates. Compounds were dissolved in DMSO at a concentration of 10 mM and diluted in DMSO using an automated pipetting instrument. Three-fold serially diluted compounds were directly added to the cells using an automated instrument. DMSO was used as a negative (solvent; no inhibition) control, and a combination of three HCV inhibitors including a protease inhibitor; an NS5A inhibitor and a nucleoside inhibitor was used at concentrations >100×EC50 as a positive control (100% inhibition). Seventy-two hours later, cells were lysed and Renilla luciferase activity were quantified as recommended by the manufacturer (Promega-Madison, Wis.). Non-linear regression was performed to calculate […], values.

[3] = test system: genotype 1a (H77) wild-type transient HCV replicon in Huh-7-derived cells; assay: Transient-transfected HCV replicon, genotype 1a wild type; format: cell-based; details: Hepatitis C virus; transient-transfected replicon genotype 1a wild type, 72 h; read-out: EC50 1A WT
[4] = test system: genotype 3a transient HCV replicon (S52) in Huh-7-derived cells; assay: Transient-transfected HCV replicon, genotype 3a wild type; format: cell-based; details: Hepatitis C virus; transient-transfected replicon genotype 3a wild type, 72 h; read-out: EC50 3A WT
[5] = test system: NS3/4a protease inhibitor resistant variant D168A in genotype 1b transient HCV replicon; assay: Transient-transfected HCV replicon, genotype 1b D168A; format: cell-based; details: Hepatitis C virus, 72 h, read-out: EC50 1B D168A
[6] = test system: genotype 2a stable HCV replicon (JFH-1) in Huh-7-derived cells; assay: Stable subgenomic HCV replicon, genotype 2a, Renilla luciferase; format: cell-based; details: Hepatitis C virus, stable replicon genotype 2a, 72 h, read-out: EC50 2A RLUC
Method: as §1, §2, §3, §4

[7] = test system: genotype 1b stable HCV replicon (Con1) in Huh-7-derived cells; assay: Stable subgenomic HCV replicon, genotype 1b, Renilla luciferase; format: cell-based; details: Hepatitis C virus, stable replicon genotype 1b, 72 h, read-out: EC50 1B RLUC
Summary of the method: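 Replicons carry hRLuc-neo, EMCV IRES and NS3-NS5B with adaptive mutations: 1a H77 P1496L/S2204I, 1b Con1 E1202G/T1280I/K1846T, 4a ED43 Q1691R/S2204I. EC50 came from non-linear regression versus DMSO and a triple-inhibitor full-inhibition control.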

[8] = test system: genotype 4a stable HCV replicon (ED43) in Huh-7-derived cells; assay: Stable subgenomic HCV replicon, genotype 4a, Renilla luciferase; format: cell-based; details: Hepatitis C virus, 72 h, read-out: EC50 4A RLUC
Method: as §1, §2, §3, §4

[9] = molecular target: T1, NS3 genotype 1b protease (Hepatitis C virus genotype 1b, UniProt Q9WMX2, E1202G); assay: Ki determination, NS3 protease genotype 1b (fluorogenic depsipeptide substrate); format: biochemical; details: NS3 protease domain genotype 1b, NS4A peptide
T1 construct: Purified NS3 protease domain (amino acids 1-181) of the genotype 1b and 3a virus were generated as above; K3 hexahistidine tag (N); rTEV protease cleavage site (N); made in house; host or cells: E. coli BL21AI
Source text: Ki Determination for Genotypes 1b and 3a NS3 Protease.
Purified NS3 protease domain (amino acids 1-181) of the genotype 1b and 3a virus were generated as above. The internally quenched fluorogenic depsipeptide substrate Ac-DED(Edans)-EEAbuψ[COO]ASK(Dabcyl)-NH2 and a synthetic peptide containing the hydrophobic core residues of the NS4A protein cofactor ([…]; NS4A peptide) were obtained from Anaspec, Inc. (San Jose, Calif.). Other chemicals and biochemicals were of reagent grade or better and were purchased from standard suppliers.
Reactions were run at room temperature in buffer consisting of 50 mM HEPES, 40% glycerol, 0.05% Triton X-100, 10 mM DTT, and 10% DMSO. The final assay solutions contained 50 pM NS3 genotype 1b protease or 200 pM genotype 3a protease, 20 μM NS4A peptide, and 4 μM substrate (genotype 1b) or 2 μM substrate (genotype 3a). Inhibitor concentrations varied from 100 nM to 5 pM in 3-fold dilutions, and no-inhibitor controls were included.
Compound dilutions were made in DMSO at 20× final concentration. Reaction mixtures were prepared in 96-well assay plates. A solution of enzyme and NS4A peptide in assay buffer (25 μL volume with both reagents at 4× final concentration) was mixed with 45 μL assay buffer and 5 μL of either inhibitor or DMSO, and pre-incubated at room temperature for 1 hour. The reaction was started by addition of 25 μL substrate solution at 4× final concentration. Plates were mixed vigorously for 5-10 seconds and reactions were allowed to proceed for 90 minutes. Fluorescence was measured every 30 s between 90 and 120 minutes reaction time using a Tecan InfiniTe M1000 or PerkinElmer Envision multimode plate reader with an excitation wavelength of 340 nm and an emission wavelength of 490 nm.
Rates were calculated from the progress curves at steady state, in the time frame of 90-120 minutes after addition of substrate. To determine the Ki, rates were plotted as a function of inhibitor concentration, and the data were fit with equation 1 (Morrison, J. F., Biochimica et Biophysica Acta 1969, 185, 269-286) to calculate Ki^app using GraphPad Prism 5. Active fraction of enzyme was determined by active site titration with known potent inhibitors. Ki was calculated from Ki^app/(1+[[S]/Km]).

T1 sequence (Q9WMX2 1027-1207 E1202G, other chains not shown): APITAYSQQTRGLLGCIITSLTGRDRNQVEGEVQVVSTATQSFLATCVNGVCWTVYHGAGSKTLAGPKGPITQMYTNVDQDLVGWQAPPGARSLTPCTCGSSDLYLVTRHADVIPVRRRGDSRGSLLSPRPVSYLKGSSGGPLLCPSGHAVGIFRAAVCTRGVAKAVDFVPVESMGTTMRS

| Structure (SMILES) | EC50 [1] [nM] | EC50 [2] [nM] | EC50 [3] [nM] | EC50 [4] [nM] | EC50 [5] [nM] | EC50 [6] [nM] | EC50 [7] [nM] | EC50 [8] [nM] | Ki [9] [nM] |
| --- | --- | --- | --- | --- | --- | --- | --- | --- | --- |
| COc1ccc2nc3c(nc2c1)O[C@@H]1C[C@@H](C(=O)N[C@]2(C(=O)NS(=O)(=O)C4CC4)C[C@H]2C(F)F)N(C1)C(=O)[C@H](C(C)(C)C)NC(=O)O[C@@H]1[C@H]2CC[C@H](C2)[C@H]1CCCCC3 [Example 4, (1R,4S,4aR,8S,11S,13R,25aR)-8-tert-butyl-N-[(1R,2R)-1-[(cyclopropylsulfonyl)carbamoyl]-2-(difluoromethyl)cyclopropyl]-17-methoxy-6,9-dioxo-2,3,4,4a,6,7,8,9,12,13,21,22,23,24,25,25a-hexadecahydro-1H,11H-1, 4:10,13-dimethanoquinoxalino[2,3-k][1,10,3,6]benzodioxadiazacyclononadecine-11-carboxamide] | 27 | 429 | 2.6 | 63 | 112 | 18 | 2.6 | 3.1 | 0.02 |
| COc1ccc2nc3c(nc2c1)O[C@@H]1C[C@@H](C(=O)N[C@]2(C(=O)NS(=O)(=O)C4(C)CC4)C[C@H]2C(F)F)N(C1)C(=O)[C@H](C(C)(C)C)NC(=O)O[C@@H]1[C@H]2CC[C@H](C2)[C@H]1CCCCC3 [Example 5, (1R,4S,4aR,8S,11S,13R,25aR)-8-tert-butyl-N-[(1R,2R)-2-(difluoromethyl)-1-{[(1-methylcyclopropyl)sulfonyl]carbamoyl}cyclopropyl]-17-methoxy-6,9-dioxo-2,3,4,4a,6,7,8,9,12,13,21,22,23,24,25,25a-hexadecahydro-1H,11H-1, 4:10,13-dimethanoquinoxalino[2,3-k][1,10,3,6]benzodioxadiazacyclononadecine-11-carboxamide] | 35 | 473 | 4.2 | 64 | 161 | 14 | 3.5 | 3.9 | 0.02 |
| COc1ccc2nc3c(nc2c1)O[C@@H]1C[C@@H](C(=O)N[C@]2(C(=O)NS(=O)(=O)C4CC4)C[C@H]2C(F)F)N(C1)C(=O)[C@H](C(C)(C)C)NC(=O)O[C@H]1[C@H](CCCCC3)C[C@H]2C[C@H]21 [Example 7, (1aR,1bS,5S,8S,10R,22aR,23aR)-5-tert-butyl-N-[(1R,2R)-1-[(cyclopropylsulfonyl)carbamoyl]-2-(difluoromethyl)cyclopropyl]-14-methoxy-3,6-dioxo-1a,1b,3,4,5,6,9,10,18,19,20,21,22,22a,23,23a-hexadecahydro-1H,8H-7,10-methanocyclopropa[3′,40]cyclopenta[1′,2′:18,19][1,10,3,6]dioxadiazacyclononadecino[11,12-b]quinoxaline-8-carboxamide] | 180 | 3300 | 72 | 928 | 1070 | 199 | 82 | 55 | 0.05 |
| COc1ccc2nc3c(nc2c1)O[C@@H]1C[C@@H](C(=O)N[C@]2(C(=O)NS(=O)(=O)C4(C)CC4)C[C@H]2C(F)F)N(C1)C(=O)[C@H](C(C)(C)C)NC(=O)O[C@H]1[C@H](CCCCC3)C[C@H]2C[C@H]21 [Example 8, (1aR,1bS,5S,8S,10R,22aR,23aR)-5-tert-butyl-N-[(1R,2R)-2-(difluoromethyl)-1-{[(1-methylcyclopropyl)sulfonyl]carbamoyl}cyclopropyl]-14-methoxy-3,6-dioxo-1a,1b,3,4,5,6,9,10,18,19,20,21,22,22a, 23,23a-hexadecahydro-1H,8H-7,10-methanocyclopropa[3′,4′]cyclopenta [1′,2′:18,19][1,10,3,6]dioxadiazacyclononadecino[11,12-b]quinoxaline-8-carboxamide] | 148 | 2450 | 72 | 817 | 712 | 110 | 55 | 33 | 0.04 |
| COc1ccc2nc3c(nc2c1)O[C@@H]1C[C@@H](C(=O)N[C@]2(C(=O)NS(=O)(=O)C4(C)CC4)C[C@H]2C(F)F)N(C1)C(=O)[C@H](C(C)(C)C)NC(=O)O[C@@H]1C[C@@H]2C[C@@H]2[C@H]1CCCCC3(F)F [Example 10, (1aS,2aR,6S,9S,11R,23aR,23bS)-6-tert-butyl-N-[(1R,2R)-2-(difluoromethyl)-1-{[(1-methylcyclopropyl)sulfonyl]carbamoyl}cyclopropyl]-19,19-difluoro-15-methoxy-4,7-dioxo-1a,2,2a,4,5,6,7,10,11,19,20,21,22,23,23a,23b-hexadecahydro-1H,9H-8,11-methanocyclopropa [4′,5′]cyclopenta[1′,2′:18,19][1,10,3,6]dioxadiazacyclononadecino[11,12-b]quinoxaline-9-carboxamide] | 1.3 | 4.9 | 1.4 | 2.3 | 1 | 1.6 | 1.4 | 1.3 | 0.02 |
